# Assay results from patent US20130053385A1, “METHOD OF COMBATING AND CONTROLLING PESTS” (SYNGENTA LIMITED, priority 2009, published 2013).
# Test system: Tetranychus urticae (Two-Spotted Spider Mite)
# Assay: Activity against Tetranychus urticae, mixed population, feeding/residual contact activity, preventive (bean leaf discs, Example B4)
# Assay type: in vivo
# Conditions: foliar, 192 h, 400 ppm, sprayed bean leaf discs, 8 days, mixed-age mites, read-out: activity (egg, larval and adult mortality)
# Excerpt: Activity Against Tetranychus urticae (Two-Spotted Spider Mite)
# (§1) (mixed population, feeding/residual contact activity, preventive)
# Bean leaf discs on agar in 24-well microtiter plates are sprayed with test solutions. After drying, the leaf discs are infested with mite populations of mixed ages. 8 days later, discs are checked for egg mortality, larval mortality, and adult mortality.
row,Compound,mortality at 400 ppm [%]
1,Cc1cc(C)c(C2=C(OS(=O)(=O)C3CC3)CC(CC3CCOC3)C2=O)c(C)c1 (centres unmarked) [Compound P28],> 80
2,Cc1cc(C)c(C2=C(OC(=O)C(C)(C)C)CC(CCC3CCOCC3)C2=O)c(C)c1 (centres unmarked) [Compound P34],> 80
3,Cc1cc(C)c(C2=C(OC(=O)C(C)(C)C)CC(CC3COCCO3)C2=O)c(C)c1 (centres unmarked) [Compound P49],> 80
4,CON1CCC(CC2CC(OC(=O)C(C)(C)C)=C(c3c(C)cc(C)cc3C)C2=O)CC1 (centres unmarked) [Compound P51],> 80
5,Cc1cc(C)c(C2=C(OC(=O)C3CC3)CC(CC3CCN(C(=O)C4CC4)C3)C2=O)c(C)c1 (centres unmarked) [Compound P57],> 80
6,Cc1cc(C)c(C2=C(OC(=O)C(C)C)CC(CC3CCN(C(=O)C(C)C)C3)C2=O)c(C)c1 (centres unmarked) [Compound P58],> 80
7,Cc1cc(C)c(C2=C(OC(=O)C(C)(C)C)CC(CC3CCN(C(=O)C(C)(C)C)C3)C2=O)c(C)c1 (centres unmarked) [Compound P59],> 80
8,Cc1cc(C)c(C2=C(OC(=O)c3ccco3)CC(CC3CCN(C(=O)c4ccco4)C3)C2=O)c(C)c1 (centres unmarked) [Compound P62],> 80
9,Cc1cc(C)c(C2=C(OC(=O)c3c(C)noc3C)CC(CC3CCN(C(=O)c4c(C)noc4C)C3)C2=O)c(C)c1 (centres unmarked) [Compound P63],> 80
10,CCC(=O)OC1=C(c2c(C)cc(C)cc2C)C(=O)C(CC2CCN(C(=O)CC)CC2)C1 (centres unmarked) [Compound P65],> 80
11,Cc1cc(C)c(C2C(=O)CC(C(O)C3CCSCC3)C2=O)c(C)c1 (centres unmarked) [Compound T6],> 80
12,Cc1cc(C)c(C2C(=O)CC(CCC3CCOCC3)C2=O)c(C)c1 (centres unmarked) [Compound T21],> 80
13,Cc1cc(C)c(C2C(=O)CC(C)(CC3CCOC3)C2=O)c(C)c1 (centres unmarked) [Compound T30],> 80
14,Cc1cc(C)c(C2C(=O)C/C(=C\C3CCN(C(=O)c4ccccc4)C3)C2=O)c(C)c1 (centres unmarked) [Compound T34],> 80
15,CC(=O)N1CCC(CC2CC(=O)C(c3c(C)cc(C)cc3C)C2=O)C1 (centres unmarked) [Compound T35],> 80
16,Cc1cc(C)c(C2C(=O)C/C(=C\C3CCOC(C)(C)C3)C2=O)c(C)c1 (centres unmarked) [Compound T37],> 80
17,Cc1cc(C)c(C2C(=O)CC(CC3COCCO3)C2=O)c(C)c1 (centres unmarked) [Compound T40],> 80
18,Cc1cc(C)c(C2C(=O)CC(CC3CCN(C(=O)c4ccccc4)C3)C2=O)c(C)c1 (centres unmarked) [Compound T41],> 80
19,COC(=O)N1CCC(CC2CC(=O)C(c3c(C)cc(C)cc3C)C2=O)C1 (centres unmarked) [Compound T43],> 80
20,CCC1CCC(CC2CC(=O)C(c3c(C)cc(C)cc3C)C2=O)O1 (centres unmarked) [Compound T44],> 80
21,Cc1cc(Br)cc(C)c1C1C(=O)C/C(=C\C2CCOCC2)C1=O (centres unmarked) [Compound T45],> 80
22,CC(=O)N1CCCCC1CC1CC(=O)C(c2c(C)cc(C)cc2C)C1=O (centres unmarked) [Compound T48],> 80
23,CCc1cc(C)cc(C)c1C1C(=O)CC(CC2CCOCC2)C1=O (centres unmarked) [Compound T50],> 80
24,Cc1cc(C)c(C2C(=O)CC(CC3CCN(C(=O)OC(C)(C)C)CC3)C2=O)c(C)c1 (centres unmarked) [Compound T55],> 80
25,CCc1cc(C)cc(C)c1C1C(=O)CC(CCC2CCOCC2)C1=O (centres unmarked) [Compound T58],> 80
26,Cc1cc(C)c(C2C(=O)CC(CC3CCN(c4ccc(Cl)cc4)CC3)C2=O)c(C)c1 (centres unmarked) [Compound T60],> 80
27,Cc1cc(-c2ccccc2)cc(C)c1C1C(=O)C/C(=C\C2CCOCC2)C1=O (centres unmarked) [Compound T66],> 80

row,Compound,mortality at 400 ppm [%]
1,Cc1cc(-c2ccccc2)cc(C)c1C1C(=O)CC(CC2CCOCC2)C1=O (centres unmarked) [Compound T67],> 80
2,Cc1cc(C)c(C2C(=O)CC(CC3CCN(C(=O)c4ccccc4C)CC3)C2=O)c(C)c1 (centres unmarked) [Compound T72],> 80
3,CCS(=O)(=O)N1CCC(CC2CC(=O)C(c3c(C)cc(C)cc3C)C2=O)CC1 (centres unmarked) [Compound T95],> 80
4,COC(=O)N1CCC(CC2CC(=O)C(c3c(C)cc(C)cc3C)C2=O)CC1 (centres unmarked) [Compound T98],> 80
5,Cc1cc(C)c(C2C(=O)CC(CC3CCN(S(=O)(=O)C(F)(F)F)CC3)C2=O)c(C)c1 (centres unmarked) [Compound T112],> 80
6,Cc1cc(C)c(C2C(=O)CC(CC3C[C@@H]4O[C@H]3[C@@H]3C(=O)N(C)C(=O)[C@@H]34)C2=O)c(C)c1 (some centres unmarked) [Compound T128],> 80
7,Cc1cc(C)c(C2C(=O)CC(CC3OCCO3)C2=O)c(C)c1 (centres unmarked) [Compound T130],> 80
8,Cc1cc(C)c(C2C(=O)CC(CC3CCN(C(=O)C(F)(F)C(F)F)C3)C2=O)c(C)c1 (centres unmarked) [Compound T131],> 80
9,Cc1cc(-c2ccc(Cl)cc2F)cc(C)c1C1C(=O)C/C(=C\C2CCOCC2)C1=O (centres unmarked) [Compound T132],> 80
10,Cc1cc(-c2ccc(OC(F)(F)F)cc2)cc(C)c1C1C(=O)C/C(=C\C2CCOCC2)C1=O (centres unmarked) [Compound T134],> 80
11,Cc1cc(-c2ccc(Cl)cc2F)cc(C)c1C1C(=O)C/C(=C\C2CCOC2)C1=O (centres unmarked) [Compound T135],> 80
12,Cc1cc(-c2ccc(C(F)(F)F)cc2)cc(C)c1C1C(=O)CC(CC2CCOCC2)C1=O (centres unmarked) [Compound T136],> 80
13,Cc1cc(-c2ccc(OC(F)(F)F)cc2)cc(C)c1C1C(=O)CC(CC2CCOCC2)C1=O (centres unmarked) [Compound T137],> 80
14,Cc1cc(Br)cc(C)c1C1C(=O)CC(CC2CCOCC2)C1=O (centres unmarked) [Compound T138],> 80
15,Cc1cc(-c2ccccc2F)cc(C)c1C1C(=O)CC(CC2CCOCC2)C1=O (centres unmarked) [Compound T139],> 80
16,Cc1cc(-c2ccccc2F)cc(C)c1C1C(=O)CC(CC2CCOC2)C1=O (centres unmarked) [Compound T140],> 80
17,Cc1cc(C)c(C2C(=O)CC(CC3CCN(C(=O)C(C)C)C3)C2=O)c(C)c1 (centres unmarked) [Compound T142],> 80
18,Cc1cc(-c2ccc(F)cc2)cc(C)c1C1C(=O)CC(CC2CCOC2)C1=O (centres unmarked) [Compound T158],> 80
19,Cc1cc(C)c(C2C(=O)CC(CC3CCN(C(=O)C(F)(F)C(F)F)CC3)C2=O)c(C)c1 (centres unmarked) [Compound T161],> 80
20,Cc1cc(C)c(C2C(=O)CC(CC3CCN(C(=O)C(F)(F)F)C3)C2=O)c(C)c1 (centres unmarked) [Compound T162],> 80
21,Cc1cc(C)c(C2C(=O)CC(CC3CCN(C(=O)C(F)(F)F)CC3)C2=O)c(C)c1 (centres unmarked) [Compound T163],> 80
22,Cc1ccc(C)c(C2C(=O)CC(CC3CCOCC3)C2=O)c1 (centres unmarked) [Compound T164],> 80
23,Cc1cc(F)cc(C)c1C1C(=O)CC(CC2CCOCC2)C1=O (centres unmarked) [Compound T170],> 80
24,Cc1cc(F)cc(C)c1C1C(=O)CC(CC2CCOC2)C1=O (centres unmarked) [Compound T171],> 80
25,Cc1cc(C2CC2)cc(C)c1C1C(=O)CC(CC2CCOCC2)C1=O (centres unmarked) [Compound T173],> 80
26,Cc1ccc(C)c(C2C(=O)CC(CC3CCOC3)C2=O)c1 (centres unmarked) [Compound T175],> 80

# Same assay, conditions: foliar, 192 h, read-out: activity (egg, larval and adult mortality)
row,Compound,mortality at 400 ppm [%]
1,Cc1cc(C)c(C2C(=O)CC(CC3CCN(C(=O)Oc4ccccc4)CC3)C2=O)c(C)c1 (centres unmarked) [Compound T68],> 80

# Test system: Myzus persicae (Green Peach Aphid)
# Assay: Activity against Myzus persicae, mixed population, feeding/residual contact activity, preventive (sunflower leaf discs, Example B1)
# Assay type: in vivo
# Conditions: foliar, 144 h, 400 ppm, sprayed sunflower leaf discs, 6 days incubation, mixed-age aphids, read-out: activity (mortality)
# Protocol: Activity Against Myzus persicae (Green Peach Aphid)
# as §1
# Sunflower leaf discs are placed on agar in a 24-well microtiter plate and sprayed with test solutions. After drying, the leaf discs are infested with an aphid population of mixed ages. After an incubation period of 6 days, samples are checked for mortality and special effects (e.g. phytotoxicity).
row,Compound,mortality at 400 ppm [%]
1,Cc1cc(C)c(C2=C(OC(=O)C3CC3)CC(CC3CCOC3)C2=O)c(C)c1 (centres unmarked) [Compound P14],> 80
2,CCCCCCC(=O)OC1=C(c2c(C)cc(C)cc2C)C(=O)C(CC2CCOC2)C1 (centres unmarked) [Compound P16],> 80
3,Cc1cc(C)c(C2=C(OC(=O)C3CC3)CC(CC3CCN(C(=O)C4CC4)C3)C2=O)c(C)c1 (centres unmarked) [Compound P57],> 80
4,Cc1cc(Br)cc(C)c1C1=C(OC(=O)C(C)(C)C)CC(CC2CCOCC2)C1=O (centres unmarked) [Compound P66],> 80
5,CC(=O)N1CCC(/C=C2\CC(=O)C(c3c(C)cc(C)cc3C)C2=O)CC1 (centres unmarked) [Compound T15],> 80
6,CC(=O)N1CCC(CC2CC(=O)C(c3c(C)cc(C)cc3C)C2=O)CC1 (centres unmarked) [Compound T24],> 80
7,Cc1cc(C)c(C2C(=O)C(C)C(CC3CCOC3)C2=O)c(C)c1 (centres unmarked) [Compound T29],> 80
8,Cc1cc(C)c(C2C(=O)C/C(=C\C3CCOC(C)(C)C3)C2=O)c(C)c1 (centres unmarked) [Compound T37],> 80
9,Cc1cc(Br)cc(C)c1C1C(=O)C/C(=C\C2CCOCC2)C1=O (centres unmarked) [Compound T45],> 80
10,CCc1cc(C)cc(C)c1C1C(=O)C/C(=C\C2CCOC2)C1=O (centres unmarked) [Compound T59],> 80
11,CCS(=O)(=O)N1CCC(CC2CC(=O)C(c3c(C)cc(C)cc3C)C2=O)CC1 (centres unmarked) [Compound T95],> 80
12,Cc1cc(-c2ccc(Cl)cc2F)cc(C)c1C1C(=O)C/C(=C\C2CCOCC2)C1=O (centres unmarked) [Compound T132],> 80
13,Cc1cc(Br)cc(C)c1C1C(=O)CC(CC2CCOCC2)C1=O (centres unmarked) [Compound T138],> 80
14,Cc1cc(C)c(C2C(=O)CC(Cc3ccccc3)(CC3CCOC3)C2=O)c(C)c1 (centres unmarked) [Compound T150],> 80
15,Cc1cc(Cl)cc(C)c1C1C(=O)CC(CC2CCOCC2)C1=O (centres unmarked) [Compound T169],> 80
16,Cc1cc(F)cc(C)c1C1C(=O)CC(CC2CCOC2)C1=O (centres unmarked) [Compound T171],> 80

# Same assay, conditions: foliar, 144 h, read-out: activity (mortality)
row,Compound,mortality at 400 ppm [%]
1,Cc1cc(C)c(C2C(=O)CC(CC3CCN(C(=O)Oc4ccccc4)CC3)C2=O)c(C)c1 (centres unmarked) [Compound T68],> 80
2,COC(=O)N1CCC(CC2CC(=O)C(c3c(C)cc(C)cc3C)C2=O)CC1 (centres unmarked) [Compound T98],> 80

# Test system: Thrips tabaci (Onion Thrips)
# Assay: Activity against Thrips tabaci, mixed population, feeding/residual contact activity, preventive (sunflower leaf discs, Example B3)
# Assay type: in vivo
# Conditions: foliar, 144 h, sprayed sunflower leaf discs, 6 days incubation, mixed-age thrips
# Protocol: Activity Against Thrips tabaci (Onion Thrips)
# as §1
# Sunflower leaf discs are placed on agar in a 24-well microtiter plate and sprayed with test solutions. After drying, the leaf discs are infested with a thrips population of mixed ages. After an incubation period of 6 days, samples are checked for mortality and special effects (e.g. phytotoxicity).
row,Compound,mortality at 400 ppm [%]
1,Cc1cc(C)c(C2=C(OC(=O)C(C)C)CC(CC3CCOC3)C2=O)c(C)c1 (centres unmarked) [Compound P13],> 80
2,Cc1cc(C)c(C2=C(OC(=O)C3CCCCC3)CC(CC3CCOC3)C2=O)c(C)c1 (centres unmarked) [Compound P15],> 80
3,Cc1cc(C)c(C2=C(OC(=O)OCC(C)(C)C)CC(CC3CCOC3)C2=O)c(C)c1 (centres unmarked) [Compound P24],> 80
4,Cc1cc(C)c(C2=C(OC(=O)Oc3ccccc3)CC(CC3CCOC3)C2=O)c(C)c1 (centres unmarked) [Compound P26],> 80
5,CCS(=O)(=O)OC1=C(c2c(C)cc(C)cc2C)C(=O)C(CC2CCOC2)C1 (centres unmarked) [Compound P27],> 80
